According to patent US10617734B2, “STAT3 and ERK signal pathway inhibitor comprising mogrosides and analogs thereof” (BEIJING UNIVERSITY OF AGRICULTURE, priority 2014, dated 2020):

Tests used:
[1] = test system: phosphorylated STAT3 (P-STAT3, Tyr705); assay: Western Blotting of phosphorylated STAT3 in U937 cells; type: cell-based; conditions: 10 μmol/L, 24 hours
Procedure: (§1) The inhibition of the STAT3 and ERK signal pathways achieved by Mogroside I E1, Mogroside II A2 and mogrol was detected by Western Blotting, specifically:
(§2) Group 1: histiocytic lymphoma U937 cells (1×10^6 cells/well) were inoculated into a 6-well culture plate for staying overnight, and 0 and 10 μmol/L of Mogroside I E1, Mogroside II A2 and mogrol were added respectively, and the culture was continued for 24 hours;
(§3) After the termination of the cell culture, the culture solution was removed, and the residue was washed with PBS (0.01 mol/L, pH 7.4), and then a cell lysis solution containing protease inhibitors was added at an amount of 50 μl/well, and the mixture was placed in an ice bath for lysis at 4° C. for 30 min and then centrifuged at 14000 r/min for 10 min, and then total proteins were obtained from the supernatant;
(§4) The protein concentrations were measured with bovine serum albumin (BSA) as the standard. 50 μg of the total proteins was separated by polyacrylamide gel electrophoresis with 12% […], electrophoretically transferred to a PVDF membrane (polyvinylidene fluoride membrane), and blocked for 1 h by 5% of skim milk (containing 0.1% of Tween 20), and then antibodies p-STAT3 (Tyr705) and p-Erk1/2 as well as β-actin were added, and the primary antibody was incubated at 4° C. overnight (β-actin was used as reference in loading amount); the membrane was washed for 3 times with TBS-T, 5 min each time; secondary antibody marked by horseradish peroxidase (HRP) was added for incubation at room temperature for 1 h, the membrane was washed for 3 times with a wash solution (TBS-T), 10 min each time, and then ECL was added for incubation in dark for 5 min, and subsequently, a fluorescence imaging analyzer was used for image development and scanning analysis, and the results of Western Blotting detection are shown in FIGS. 4 to 6.

[2] = test system: phosphorylated ERK1/2 (P-ERK1/2); assay: Western Blotting of phosphorylated ERK1/2 in U937 cells; type: cell-based; conditions: 10 μmol/L, 24 hours
Procedure: as §1, §2, §3, §4

[3] = test system: phosphorylated STAT3 (P-STAT3, Tyr705); assay: Western Blotting of phosphorylated STAT3 in A875 cells; type: cell-based, human; conditions: melanoma A875 cells, 10 μmol/L, 24 hours
Procedure: as §1
(§5) Group 2: human melanoma A875 cells (1×10^6 cells/well) were inoculated into a 6-well culture plate for staying overnight, and 0 and 10 μmol/L of Mogroside I E1, Mogroside II A2 and mogrol were added respectively, and the culture was continued for 24 hours;
as §3, §4

[4] = test system: phosphorylated ERK1/2 (P-ERK1/2); assay: Western Blotting of phosphorylated ERK1/2 in A875 cells; type: cell-based, human; conditions: melanoma A875 cells, 10 μmol/L, 24 hours
Procedure: as §1, §5, §3, §4

[5] = test system: phosphorylated STAT3 (P-STAT3, Tyr705); assay: Western Blotting of phosphorylated STAT3 in K562 cells; type: cell-based, human; conditions: leukemia cells K562, 10 μmol/L, 24 hours
Procedure: as §1
(§6) Group 3: leukemia cells K562 (1×10^6 cells/well) were inoculated into a 6-well culture plate for staying overnight, and 0 and 10 μmol/L of Mogroside I E1 Mogroside II A2 and mogrol were added respectively, and the culture was continued for 24 hours;
as §3, §4

[6] = test system: phosphorylated ERK1/2 (P-ERK1/2); assay: Western Blotting of phosphorylated ERK1/2 in K562 cells; type: cell-based, human; conditions: leukemia cells K562, 10 μmol/L, 24 hours
Procedure: as §1, §6, §3, §4

[7] = test system: human melanoma A875 cells; assay: MTT colorimetric experiment, cell growth inhibition; type: cell-based; conditions: melanoma A875 cells, 0.1, 1, 10, 100, 200 and 250 μmol/L, MTT after 24 h
Procedure: (§7) MTT colorimetric experiments were performed after 24 h, respectively: prior to the finish of each experiment, 15 μl of MTT solution in a concentration of 5 mg/ml was added to each well, and the culture was continued in dark at 37° C. for 4 h, then 150 μl of DMSO was added to each well and oscillating in a shaker for 10 min, and then the residue was placed in a microplate reader to detect the optical density OD) at 490 nm, and the inhibition rate was calculated according to the following formula: cell growth inhibition rate (control group OD490—test group OD490)/control group OD490×100%.

[8] = test system: lymphoma U937 cells; assay: as above; type: cell-based; conditions: U937 cells, 0.1, 1, 10, 100, 200 and 250 μmol/L, MTT after 24 h
Procedure: as §7

[9] = test system: leukemia cells K562; assay: as above; type: cell-based, human; conditions: leukemia cells K562, 0.1, 1, 10, 100, 200 and 250 μmol/L, MTT after 24 h
Procedure: as §7

Structure (SMILES)	expression level of phosphorylated STAT3 (P-STAT3) [1]	expression level of phosphorylated ERK1/2 (P-ERK1/2) [2]	expression level of phosphorylated STAT3 (P-STAT3) [3]	expression level of phosphorylated ERK1/2 (P-ERK1/2) [4]	expression level of phosphorylated STAT3 (P-STAT3) [5]	expression level of phosphorylated ERK1/2 (P-ERK1/2) [6]	cell growth inhibition rate [7]	cell growth inhibition rate [8]	cell growth inhibition rate [9]
C[C@H](CC[C@@H](O)C(C)(C)O)[C@H]1CC[C@@]2(C)[C@@H]3CC=C4[C@@H](CC[C@H](O[C@@H]5O[C@H](CO)[C@@H](O)[C@H](O)[C@H]5O)C4(C)C)[C@]3(C)[C@H](O)C[C@]12C [Mogroside I E1]	significantly decreased	significantly decreased	significantly decreased	significantly decreased	significantly decreased	significantly decreased	inhibitory effect on the proliferation	inhibitory effect on the proliferation	inhibitory effect on the proliferation
C[C@H](CC[C@@H](O)C(C)(C)O)[C@H]1CC[C@@]2(C)[C@@H]3CC=C4[C@@H](CC[C@H](O[C@@H]5O[C@H](CO[C@@H]6O[C@H](CO)[C@@H](O)[C@H](O)[C@H]6O)[C@@H](O)[C@H](O)[C@H]5O)C4(C)C)[C@]3(C)[C@H](O)C[C@]12C [Mogroside II A2]	significantly decreased	significantly decreased	significantly decreased	significantly decreased	significantly decreased	significantly decreased	inhibitory effect on the proliferation	inhibitory effect on the proliferation	inhibitory effect on the proliferation
